This note sets out measurements from patent US20240366612A1, “COMPOUNDS AND METHODS FOR MODULATING NUCLEIC ACID SPLICING” (REMIX THERAPEUTICS INC., priority 2021, published 2024).

Series [1] concerns HiBiT-tagged MYB protein in K562 cells. Put plainly: HiBiT protein abundance assay, MYB. It is filed as cell-based, human. The conditions noted are these: HiBiT-modified K562 cells, 24 hours, luminescence. The procedure:
(§1) Compounds described herein were used to screen for effects on quantitative protein abundance using a HiBit assay system (Promega). Quantitative protein abundance was determined by measuring the protein levels of HiBit-tagged protein targets expressed in cell culture via luminescence using the Nano-Glo HiBiT Lytic Detection System, which uses a split complementation assay format to reconstitute NanoBiT enzyme to generate a luminescent signal. A protein abundance assay was developed such that endogenous protein targets could be modified with the HiBiT peptide tag and their abundance could be assessed after compound treatment. Briefly, K562 cell lines containing a HiBiT-modification were treated with various compounds described herein (e.g., compounds of Formulas (I), (II), or (III)). After treatment for 24 hours, the protein abundance of a specific target was determined by measuring luminescence.
(§2) • Promega Nano-Glo HiBiT Lytic Detection System (cat #N3030) • Corning 384-well TC-treated microplates (cat #3570) • Synthego Engineered Cells Knock-In Clones
(§3) Cells were maintained in IMDM with 10% FBS. Before the assay, cells were diluted with […] growth media (IMDM+1% FBS media) and were seeded in a 384-well plate at a density of 10000 cells/well (for each cell line listed in Table 5). Each compound was prepared as a 10-point 3-fold serial dilution in DMSO with the top dose at a final concentration of 10 μM in the well. Unmodified K562 cells were added at the previously specified density with DMSO to serve as an assay baseline and positive control (PC) and DMSO only with the respective modified cell lines was added to the negative control (NC) columns. Final DMSO concentration was kept at or below 0.25%. Treated cell plates were placed in an incubator at 37° C. with 5% CO2 for 24 hours. After 24 hours, 25 μL of Complete HiBit Lytic reagent was added to each well at room temperature (e.g. one plate requiring 10 mL Lytic Buffer, 100 μL LgBiT Protein, 200 μL Lytic Substrate), shaken for 5 minutes at 600 RPM, then left to sit for 10 minutes for signal to stabilize before reading on a Spark Cyto plate reader (Tecan) with a 500 ms measurement time.
(§4) To determine compound effects on protein abundance of each target in Table 5, the percent response for each respective cell line was calculated at each compound concentration as follows:
(§5) For the normalized response at each concentration, a four-parameter logistical regression was fit to the data and the response was interpolated at the 50% value to determine a concentration for protein abundance at 50% (IC50) the untreated control.

Series [2] deals with HiBiT-tagged Target C protein in K562 cells. Put plainly: HiBiT protein abundance assay, Target C. The conditions noted are these: HiBiT-modified K562 cells, 24 hours, luminescence. Format: cell-based, human. As to the method:
as §1, §2, §3, §4, §5

Series [3] concerns HiBiT-tagged HTT protein in K562 cells. Put plainly: HiBiT protein abundance assay, HTT. Conditions: HiBiT-modified K562 cells, 24 hours, luminescence. It is filed as cell-based, human. The procedure:
as §1, §2, §3, §4, §5

Series [4] is described as follows: Cell Titer Glo 2.0 cell viability assay. The conditions noted are these: human, K562 cells.
Description: Compounds described herein were screened for toxicity in K562 (human chronic myelogenous leukemia) cells using a Cell Titer Glo 2.0 assay.
• Promega CellTiter-Gbo® 2.0 Cell Viability Assay (cat #G9241) • Corning 384-well TC-treated microplates (cat #3570)
Cells were plated at 500 cells/well (K562 cells) in 45 μL of IMDM supplemented with 10% FBS in a 384-well opaque plate. Wells containing only medium were used as a blank control. Test compounds (e.g., compounds of Formula (I), (II), and (III)) were first serially diluted in DMSO then diluted 1:100 with IMDM+10% FBS. The final concentration of DMSO was 0.1% in each well. The cells were incubated for 72 hours at 37° C. and 5% CO2 before assaying with Cell Titer Glo 2.0 reagent.

In the case of `Cc1c(O)c(-c2nc3ncn(C4CCNCC4)c(=O)c3s2)cc2cn(C)nc12` [Compound 336, 2-(6-hydroxy-2,7-dimethylindazol-5-yl)-6-(piperidin-4-yl)-[1,3]thiazolo[4,5-d]pyrimidin-7-one], the IC50 in series [1], in series [2] and in series [3] was 100 to 1000 nM in each case. In series [4], this compound showed a GI50 at 72 h of 1000 to 10000 nM.
